According to paper PMC5225157 (Biochemistry, 2016):
* marks the point of attachment. Dansyl = CN(C)c1cccc2c(S(=O)(=O)*)cccc12

Experiments:
[1] = tested on: C. reinhardtii P4H-1 (CrP4H-1); experiment: UPLC assay of dansyl peptides as substrates; format: biochemical, Chlamydomonas reinhardtii; settings: for hydroxylation of dansyl isosteres by CrP4H-1: UPLC, data not shown
human CP4H1 [2] = target: T1, human CP4H1 (Homo sapiens, UniProt P13674); experiment: Inhibition of human CP4H1 activity by alkene isosteres; format: biochemical; settings: for inhibition of catalysis by human CP4H: dansyl isostere 100 µM, dansylGPPGOEt 0.50 mM, pH 7.8, 30 °C, mean (± SD) of three independent experiments; for inhibition of catalysis by human CP4H / relative inhibitory potency, cis versus trans Cbz isosteres: α-ketoglutarate 1.00 mM; for relative inhibitory potency, cis versus trans Cbz isosteres: Cbz isostere 1.00 mM, CbzGPPGOEt 1.00 mM as substrate, pH 7.8, three independent experiments
[3] = tested on: C. reinhardtii P4H-1 (CrP4H-1); settings: isostere 100 µM, dansylGPPGOEt 0.50 mM, α-ketoglutarate 1.00 mM, NHis6-CrP4H-1 1.2 µM, 30 °C, 1 h, UPLC; three independent experiments
CP4H = settings: a CP4H; cited from earlier work
human CP4H1 [4] = target: T1, human CP4H1; experiment: UPLC assay of model peptides and isosteres as substrates; format: biochemical

T1 sequence (P13674 18-534): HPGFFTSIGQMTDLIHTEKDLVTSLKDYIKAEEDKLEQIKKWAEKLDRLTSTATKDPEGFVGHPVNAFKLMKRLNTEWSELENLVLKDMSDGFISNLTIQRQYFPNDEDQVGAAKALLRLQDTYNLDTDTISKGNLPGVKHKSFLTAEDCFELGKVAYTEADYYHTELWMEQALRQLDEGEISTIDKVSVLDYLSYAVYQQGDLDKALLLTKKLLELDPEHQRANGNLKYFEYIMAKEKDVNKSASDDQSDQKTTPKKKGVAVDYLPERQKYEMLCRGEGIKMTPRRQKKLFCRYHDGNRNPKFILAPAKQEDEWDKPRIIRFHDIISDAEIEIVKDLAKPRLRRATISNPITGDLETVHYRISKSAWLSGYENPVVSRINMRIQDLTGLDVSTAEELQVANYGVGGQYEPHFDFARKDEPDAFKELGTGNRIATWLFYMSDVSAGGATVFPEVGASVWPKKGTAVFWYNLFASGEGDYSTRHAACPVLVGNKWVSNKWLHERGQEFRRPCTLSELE
T1 sequence (P07237 18-508 partner): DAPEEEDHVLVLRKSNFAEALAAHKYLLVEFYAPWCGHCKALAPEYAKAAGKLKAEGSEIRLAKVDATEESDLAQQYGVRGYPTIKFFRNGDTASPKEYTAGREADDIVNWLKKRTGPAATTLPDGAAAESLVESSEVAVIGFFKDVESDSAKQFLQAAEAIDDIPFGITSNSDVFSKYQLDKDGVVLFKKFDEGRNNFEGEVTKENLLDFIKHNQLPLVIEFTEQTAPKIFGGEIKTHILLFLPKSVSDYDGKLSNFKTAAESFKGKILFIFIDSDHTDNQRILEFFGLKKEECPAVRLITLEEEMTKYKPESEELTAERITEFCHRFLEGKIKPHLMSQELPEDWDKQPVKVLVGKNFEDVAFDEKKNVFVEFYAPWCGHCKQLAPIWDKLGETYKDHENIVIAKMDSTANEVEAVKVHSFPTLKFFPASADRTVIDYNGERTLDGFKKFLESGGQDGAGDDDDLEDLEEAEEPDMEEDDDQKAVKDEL

CCOC(=O)CNC(=O)[C@@H]1CCC/C1=C\[C@@H]1CCCN1C(=O)CNS(=O)(=O)c1cccc2c(N(C)C)cccc12 [Compound 3, dansylGPtransPGOEt]
hydroxylation of dansyl isosteres by CrP4H-1 [1]: did not observe hydroxylation
IC50 (human CP4H1 [2]): 410 ± 30 µM
inhibition of catalysis by human CP4H (human CP4H1 [2]): inhibitors of catalysis by human CP4H
inhibition of CrP4H-1 [3]: served as inhibitors of CrP4H-1

CCOC(=O)CNC(=O)[C@@H]1CCC/C1=C/[C@@H]1CCCN1C(=O)CNS(=O)(=O)c1cccc2c(N(C)C)cccc12 [Compound 5, dansylGPcisPGOEt]
hydroxylation of dansyl isosteres by CrP4H-1 [1]: did not observe hydroxylation
IC50 (human CP4H1 [2]): 75 ± 6 µM
Ki (human CP4H1 [2]): 56 ± 13 µM
inhibition of catalysis by human CP4H (human CP4H1 [2]): inhibitors of catalysis by human CP4H
inhibition of CrP4H-1 [3]: served as inhibitors of CrP4H-1

(ProProGly)10
mode of substrate inhibition versus α-ketoglutarate (CP4H): competitive with the cosubstrate α-ketoglutarate
substrate inhibition during turnover of longer collagen mimetic peptide (CP4H): Substrate inhibition had been observed

CbzGPcisPGOEt [Compound 6]
relative inhibitory potency, cis versus trans Cbz isosteres (human CP4H1 [2]): the cis isostere inhibits with greater potency than does the trans isostere

CbzGPtransPGOEt [Compound 4]
relative inhibitory potency, cis versus trans Cbz isosteres (human CP4H1 [2]): the cis isostere inhibits with greater potency than does the trans isostere

dansylGlyProProGlyOEt (Dansyl-GPPG-OEt; SMILES CCOC(=O)CNC(=O)[C@@H]1CCCN1C(=O)[C@@H]1CCCN1C(=O)CNS(=O)(=O)c1cccc2c(N(C)C)cccc12) [Compound 1]
Ki (human CP4H1 [4]; read-out: Ki (dissociation constant for substrate binding in an inhibitory manner), substrate-inhibition fit (R^2 = 0.98), dansylGPPGOEt 58–1860 µM, α-ketoglutarate 1.00 mM, CP4H1 100 nM, pH 7.8, 30 °C, 15 min, UPLC A289, triplicate): 300 ± 100 µM

dansylGlyProProGlyOEt [Compound 1]
kinetic pattern of turnover (CrP4H-1) ([1]; dansylGPPGOEt 212–2120 µM, α-ketoglutarate 1.00 mM): substrate inhibition phenomenon similar to that observed for human CP4H1
kinetic pattern of turnover (human CP4H1 [4]; dansylGPPGOEt 58–1860 µM, α-ketoglutarate 1.00 mM, pH 7.8, 30 °C): substrate inhibition
substrate inhibition at saturating α-ketoglutarate (human CP4H1 [4]; saturating concentrations of α-ketoglutarate, human CP4H1): observed even at saturating concentrations of α-ketoglutarate
